ChEMBL document CHEMBL4507292 (2021)

How the values were obtained:
[1] = target: Cyclin-dependent kinase 7 (Homo sapiens) (UniProt P50613); details: Compound concentration 1000.0 nM
[2] = target: BMP-2-inducible protein kinase (Homo sapiens) (UniProt Q9NSY1); details: Compound concentration 1000.0 nM
[3] = target: Ribosomal protein S6 kinase alpha-3 (Homo sapiens) (UniProt P51812); details: Compound concentration 1000.0 nM
[4] = target: Mitogen-activated protein kinase kinase kinase kinase 2 (Homo sapiens) (UniProt Q12851); details: Compound concentration 1000.0 nM
[5] = target: Calcium/calmodulin-dependent protein kinase type II subunit gamma (Homo sapiens) (UniProt Q13555); details: Compound concentration 1000.0 nM
[6] = target: Myosin light chain kinase 2, skeletal/cardiac muscle (Homo sapiens) (UniProt Q9H1R3); details: Compound concentration 1000.0 nM
Sequence of Myosin light chain kinase 2, skeletal/cardiac muscle (Homo sapiens) (Q9H1R3 whole entry): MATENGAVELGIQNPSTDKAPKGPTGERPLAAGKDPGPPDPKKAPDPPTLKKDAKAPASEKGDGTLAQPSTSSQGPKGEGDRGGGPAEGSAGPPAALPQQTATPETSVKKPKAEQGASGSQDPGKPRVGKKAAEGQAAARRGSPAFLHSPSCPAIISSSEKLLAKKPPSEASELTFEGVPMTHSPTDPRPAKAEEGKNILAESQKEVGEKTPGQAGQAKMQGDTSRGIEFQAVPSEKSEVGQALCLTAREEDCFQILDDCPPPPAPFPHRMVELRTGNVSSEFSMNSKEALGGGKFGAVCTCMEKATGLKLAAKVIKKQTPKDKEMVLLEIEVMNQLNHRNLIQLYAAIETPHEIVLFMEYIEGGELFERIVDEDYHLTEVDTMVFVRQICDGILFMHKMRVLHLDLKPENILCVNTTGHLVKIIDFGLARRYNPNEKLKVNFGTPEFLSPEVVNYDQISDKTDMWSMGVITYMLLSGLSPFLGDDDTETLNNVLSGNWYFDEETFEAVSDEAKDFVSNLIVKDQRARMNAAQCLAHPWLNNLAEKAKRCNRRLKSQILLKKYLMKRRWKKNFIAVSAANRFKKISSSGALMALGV

[7] = system: Tyrosine-protein kinase ABL1 (Homo sapiens), P00519 [H396P]; details: Compound concentration 1000.0 nM
[8] = target: Cyclin-dependent kinase-like 2 (Homo sapiens) (UniProt Q92772); details: Compound concentration 1000.0 nM
[9] = system: Receptor-type tyrosine-protein kinase FLT3 (Homo sapiens), P36888 [UNDEFINED MUTATION]; details: Compound concentration 1000.0 nM
[10] = target: Casein kinase I isoform alpha (Homo sapiens) (UniProt P48729); details: Compound concentration 1000.0 nM
Sequence of Casein kinase I isoform alpha (Homo sapiens) (P48729 2-337 limits assumed): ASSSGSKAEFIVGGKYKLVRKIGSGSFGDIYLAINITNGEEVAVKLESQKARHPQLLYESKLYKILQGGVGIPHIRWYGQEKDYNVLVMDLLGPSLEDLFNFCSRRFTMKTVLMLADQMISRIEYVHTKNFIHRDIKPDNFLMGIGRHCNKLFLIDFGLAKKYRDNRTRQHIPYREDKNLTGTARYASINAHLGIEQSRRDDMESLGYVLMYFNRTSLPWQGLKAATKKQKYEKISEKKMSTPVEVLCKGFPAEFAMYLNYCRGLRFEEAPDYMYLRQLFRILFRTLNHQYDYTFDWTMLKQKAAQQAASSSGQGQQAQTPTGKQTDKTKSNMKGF

[11] = target: Sigma intracellular receptor 2 (Homo sapiens, UniProt Q5BJF2); test: GPCRScan assay: inhibition of Sigma 2; design: radioligand conc. used [nm] 5.0, parental cells HEKT
[12] = target: Proto-oncogene tyrosine-protein kinase Src (Homo sapiens) (UniProt P12931); details: Compound concentration 1000.0 nM
[13] = target: Mitogen-activated protein kinase kinase kinase 9 (Homo sapiens) (UniProt P80192); details: Compound concentration 1000.0 nM
Sequence of Mitogen-activated protein kinase kinase kinase 9 (Homo sapiens) (P80192 whole entry, looked up, the tested form may be a part): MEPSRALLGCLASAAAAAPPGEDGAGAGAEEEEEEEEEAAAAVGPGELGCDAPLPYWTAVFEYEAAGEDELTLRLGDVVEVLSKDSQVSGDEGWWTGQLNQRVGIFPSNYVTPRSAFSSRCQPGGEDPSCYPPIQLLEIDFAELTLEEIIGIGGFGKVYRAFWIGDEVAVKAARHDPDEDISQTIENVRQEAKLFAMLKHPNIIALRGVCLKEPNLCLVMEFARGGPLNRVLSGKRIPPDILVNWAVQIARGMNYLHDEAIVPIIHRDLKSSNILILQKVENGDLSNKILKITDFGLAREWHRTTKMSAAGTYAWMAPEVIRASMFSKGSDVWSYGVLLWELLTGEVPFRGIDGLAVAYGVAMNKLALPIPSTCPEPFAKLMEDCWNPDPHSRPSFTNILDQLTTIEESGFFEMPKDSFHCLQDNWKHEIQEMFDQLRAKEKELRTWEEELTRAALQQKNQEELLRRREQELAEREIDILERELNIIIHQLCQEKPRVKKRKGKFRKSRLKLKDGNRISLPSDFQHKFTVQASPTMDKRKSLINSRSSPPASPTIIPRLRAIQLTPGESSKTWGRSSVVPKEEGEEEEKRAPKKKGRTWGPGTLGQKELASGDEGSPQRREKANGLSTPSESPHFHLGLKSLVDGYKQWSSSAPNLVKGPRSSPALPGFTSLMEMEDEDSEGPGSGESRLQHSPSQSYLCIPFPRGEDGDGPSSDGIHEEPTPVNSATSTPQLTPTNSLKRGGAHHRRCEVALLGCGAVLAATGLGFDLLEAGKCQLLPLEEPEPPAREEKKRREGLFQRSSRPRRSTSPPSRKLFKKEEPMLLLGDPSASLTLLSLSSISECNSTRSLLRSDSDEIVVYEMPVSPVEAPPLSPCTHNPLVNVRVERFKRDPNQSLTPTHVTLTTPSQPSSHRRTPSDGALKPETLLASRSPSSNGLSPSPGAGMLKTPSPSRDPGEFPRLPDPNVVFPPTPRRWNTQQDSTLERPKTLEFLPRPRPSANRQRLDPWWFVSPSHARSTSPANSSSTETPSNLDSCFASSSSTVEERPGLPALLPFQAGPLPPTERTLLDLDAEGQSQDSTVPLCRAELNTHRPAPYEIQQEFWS

[14] = target: Ankyrin repeat and protein kinase domain-containing protein 1 (Homo sapiens) (UniProt Q8NFD2); details: Compound concentration 1000.0 nM
[15] = target: Calcium/calmodulin-dependent protein kinase type 1B (Homo sapiens) (UniProt Q6P2M8); details: Compound concentration 1000.0 nM
[16] = target: Casein kinase I isoform epsilon (Homo sapiens) (UniProt P49674); details: Compound concentration 1000.0 nM
[17] = system: Epidermal growth factor receptor (Homo sapiens), P00533 [UNDEFINED MUTATION]; details: Compound concentration 1000.0 nM
[18] = target: Dual specificity mitogen-activated protein kinase kinase 1 (Homo sapiens) (UniProt Q02750); details: Compound concentration 1000.0 nM
[19] = target: Casein kinase I isoform gamma-2 (Homo sapiens) (UniProt P78368); details: Compound concentration 1000.0 nM
[20] = target: Serine/threonine-protein kinase PLK2 (Homo sapiens) (UniProt Q9NYY3); details: Compound concentration 1000.0 nM
[21] = target: Vascular endothelial growth factor receptor 1 (Homo sapiens) (UniProt P17948); details: Compound concentration 1000.0 nM
Sequence of Vascular endothelial growth factor receptor 1 (Homo sapiens) (P17948 whole entry): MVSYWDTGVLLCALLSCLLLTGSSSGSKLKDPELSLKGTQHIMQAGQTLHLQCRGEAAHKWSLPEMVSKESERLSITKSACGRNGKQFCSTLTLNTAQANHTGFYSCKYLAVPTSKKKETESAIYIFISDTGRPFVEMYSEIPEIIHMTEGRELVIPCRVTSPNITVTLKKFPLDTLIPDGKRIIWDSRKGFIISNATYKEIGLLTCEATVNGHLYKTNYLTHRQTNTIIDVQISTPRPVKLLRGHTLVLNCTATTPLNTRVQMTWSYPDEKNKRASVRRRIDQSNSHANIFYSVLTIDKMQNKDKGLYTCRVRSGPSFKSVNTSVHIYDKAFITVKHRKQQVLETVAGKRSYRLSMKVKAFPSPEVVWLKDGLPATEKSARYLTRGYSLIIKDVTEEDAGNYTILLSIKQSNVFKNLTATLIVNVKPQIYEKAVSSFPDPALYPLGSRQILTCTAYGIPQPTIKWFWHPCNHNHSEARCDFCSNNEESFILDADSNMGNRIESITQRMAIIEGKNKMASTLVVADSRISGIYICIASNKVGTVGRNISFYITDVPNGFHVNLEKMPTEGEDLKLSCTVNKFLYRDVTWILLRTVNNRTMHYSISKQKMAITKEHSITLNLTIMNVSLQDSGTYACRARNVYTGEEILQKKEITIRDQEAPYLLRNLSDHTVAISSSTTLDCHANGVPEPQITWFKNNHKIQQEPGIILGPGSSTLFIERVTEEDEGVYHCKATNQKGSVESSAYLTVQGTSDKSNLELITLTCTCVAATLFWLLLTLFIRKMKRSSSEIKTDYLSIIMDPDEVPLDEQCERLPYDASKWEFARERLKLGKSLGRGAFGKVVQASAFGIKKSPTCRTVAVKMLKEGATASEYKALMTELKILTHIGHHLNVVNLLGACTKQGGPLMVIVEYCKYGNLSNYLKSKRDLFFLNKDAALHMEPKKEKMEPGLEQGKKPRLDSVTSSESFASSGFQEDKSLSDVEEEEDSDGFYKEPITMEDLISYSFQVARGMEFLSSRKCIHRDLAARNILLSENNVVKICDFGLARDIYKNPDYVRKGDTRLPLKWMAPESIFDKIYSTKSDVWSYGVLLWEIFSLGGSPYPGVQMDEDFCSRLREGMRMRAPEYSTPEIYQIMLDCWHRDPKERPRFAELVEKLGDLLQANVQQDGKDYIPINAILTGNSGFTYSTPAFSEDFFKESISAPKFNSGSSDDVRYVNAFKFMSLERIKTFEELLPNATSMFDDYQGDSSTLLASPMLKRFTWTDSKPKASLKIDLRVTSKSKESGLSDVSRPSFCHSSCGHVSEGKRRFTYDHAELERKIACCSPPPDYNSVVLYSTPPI

[22] = target: MAP kinase-interacting serine/threonine-protein kinase 2 (Homo sapiens) (UniProt Q9HBH9); details: Compound concentration 1000.0 nM
[23] = target: Ribosomal protein S6 kinase alpha-1 (Homo sapiens) (UniProt Q15418); details: Compound concentration 1000.0 nM
[24] = system: Epidermal growth factor receptor (Homo sapiens), P00533 [G719C]; details: Compound concentration 1000.0 nM
[25] = target: Serine/threonine-protein kinase 33 (Homo sapiens) (UniProt Q9BYT3); details: Compound concentration 1000.0 nM
[26] = target: cGMP-dependent protein kinase 1 (Homo sapiens) (UniProt Q13976); details: Compound concentration 1000.0 nM
[27] = target: Mitogen-activated protein kinase 12 (Homo sapiens) (UniProt P53778); details: Compound concentration 1000.0 nM
Sequence of Mitogen-activated protein kinase 12 (Homo sapiens) (P53778 whole entry): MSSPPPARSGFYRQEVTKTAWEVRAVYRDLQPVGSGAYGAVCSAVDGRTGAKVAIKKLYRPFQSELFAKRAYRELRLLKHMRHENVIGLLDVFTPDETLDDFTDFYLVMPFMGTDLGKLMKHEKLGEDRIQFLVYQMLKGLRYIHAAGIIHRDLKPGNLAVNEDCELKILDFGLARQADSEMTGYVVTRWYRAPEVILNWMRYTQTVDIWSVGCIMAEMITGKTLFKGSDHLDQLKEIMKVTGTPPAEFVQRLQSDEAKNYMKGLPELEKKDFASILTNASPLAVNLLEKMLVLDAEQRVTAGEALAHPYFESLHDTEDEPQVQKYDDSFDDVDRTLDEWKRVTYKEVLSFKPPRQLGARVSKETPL

[28] = target: Serine/threonine-protein kinase pim-1 (Homo sapiens) (UniProt P11309); details: Compound concentration 1000.0 nM
[29] = target: 5-hydroxytryptamine receptor 5A (Homo sapiens) (UniProt P47898); details: Compound concentration 10.0 uM
[30] = target: SRSF protein kinase 1 (Homo sapiens) (UniProt Q96SB4); details: Compound concentration 1000.0 nM
[31] = target: Cyclin-G-associated kinase (Homo sapiens) (UniProt O14976); details: Compound concentration 1000.0 nM
Sequence of Cyclin-G-associated kinase (Homo sapiens) (O14976 whole entry): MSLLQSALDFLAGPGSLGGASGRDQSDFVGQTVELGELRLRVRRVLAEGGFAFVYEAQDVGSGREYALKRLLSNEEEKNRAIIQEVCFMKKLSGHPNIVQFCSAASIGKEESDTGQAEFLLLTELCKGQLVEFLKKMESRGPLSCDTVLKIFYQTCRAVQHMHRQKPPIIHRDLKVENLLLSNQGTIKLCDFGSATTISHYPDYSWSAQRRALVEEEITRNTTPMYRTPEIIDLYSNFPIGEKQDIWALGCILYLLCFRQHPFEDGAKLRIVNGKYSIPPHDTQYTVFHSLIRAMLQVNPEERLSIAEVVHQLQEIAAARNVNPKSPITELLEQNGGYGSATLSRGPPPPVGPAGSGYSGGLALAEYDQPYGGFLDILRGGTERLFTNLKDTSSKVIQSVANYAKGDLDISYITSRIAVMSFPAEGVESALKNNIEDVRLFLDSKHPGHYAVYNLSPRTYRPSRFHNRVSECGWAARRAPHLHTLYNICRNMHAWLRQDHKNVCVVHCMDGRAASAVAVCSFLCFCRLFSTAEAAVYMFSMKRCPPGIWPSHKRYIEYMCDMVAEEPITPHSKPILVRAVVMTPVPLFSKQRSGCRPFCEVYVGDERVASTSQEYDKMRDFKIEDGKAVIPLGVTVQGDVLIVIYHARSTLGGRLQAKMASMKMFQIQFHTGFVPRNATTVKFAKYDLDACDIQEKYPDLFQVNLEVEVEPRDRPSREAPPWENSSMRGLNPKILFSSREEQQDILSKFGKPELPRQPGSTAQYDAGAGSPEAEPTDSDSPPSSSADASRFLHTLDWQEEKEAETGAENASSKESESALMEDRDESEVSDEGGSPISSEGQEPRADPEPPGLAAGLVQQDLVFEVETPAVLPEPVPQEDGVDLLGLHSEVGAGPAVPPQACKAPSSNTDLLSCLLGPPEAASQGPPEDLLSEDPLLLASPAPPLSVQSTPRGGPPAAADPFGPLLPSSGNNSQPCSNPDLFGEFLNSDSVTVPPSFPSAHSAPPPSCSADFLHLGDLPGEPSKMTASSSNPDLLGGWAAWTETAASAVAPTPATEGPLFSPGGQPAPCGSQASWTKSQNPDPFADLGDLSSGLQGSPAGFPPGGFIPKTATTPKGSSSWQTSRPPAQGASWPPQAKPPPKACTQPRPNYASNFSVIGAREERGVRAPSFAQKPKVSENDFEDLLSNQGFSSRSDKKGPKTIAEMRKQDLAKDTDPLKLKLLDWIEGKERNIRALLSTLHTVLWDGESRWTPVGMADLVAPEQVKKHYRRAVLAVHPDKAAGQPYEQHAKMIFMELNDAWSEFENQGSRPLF

[32] = target: Dual specificity tyrosine-phosphorylation-regulated kinase 1A (Homo sapiens) (UniProt Q13627); details: Compound concentration 1000.0 nM
[33] = target: Cyclin-dependent kinase 2 homolog (Plasmodium falciparum (isolate 3D7)) (UniProt P61075); details: Compound concentration 1000.0 nM
[34] = system: Epidermal growth factor receptor (Homo sapiens), P00533 [UNDEFINED MUTATION]; details: Compound concentration 1000.0 nM; remark: listed apart in the source
[35] = target: T1, 5-hydroxytryptamine receptor 2C (Homo sapiens) (UniProt P28335); details: Compound concentration 10.0 uM
T1 sequence (whole entry): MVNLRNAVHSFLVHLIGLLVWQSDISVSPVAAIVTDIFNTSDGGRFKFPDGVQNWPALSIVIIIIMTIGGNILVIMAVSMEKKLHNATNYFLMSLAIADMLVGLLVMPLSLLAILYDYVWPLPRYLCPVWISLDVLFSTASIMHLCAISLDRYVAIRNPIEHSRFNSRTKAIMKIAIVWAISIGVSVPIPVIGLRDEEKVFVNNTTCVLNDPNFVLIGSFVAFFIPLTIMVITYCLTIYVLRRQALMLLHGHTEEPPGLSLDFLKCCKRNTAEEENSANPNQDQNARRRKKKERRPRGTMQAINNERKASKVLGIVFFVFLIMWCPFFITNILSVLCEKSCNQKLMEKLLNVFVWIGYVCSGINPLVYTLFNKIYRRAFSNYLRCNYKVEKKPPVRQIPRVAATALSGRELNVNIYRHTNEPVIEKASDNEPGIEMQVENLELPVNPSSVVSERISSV

[36] = target: Calcium/calmodulin-dependent protein kinase type II subunit alpha (Homo sapiens) (UniProt Q9UQM7); details: Compound concentration 1000.0 nM
[37] = target: Microtubule-associated serine/threonine-protein kinase 1 (Homo sapiens) (UniProt Q9Y2H9); details: Compound concentration 1000.0 nM
[38] = target: Protein kinase C epsilon type (Homo sapiens) (UniProt Q02156); details: Compound concentration 1000.0 nM
[39] = target: Cyclin-dependent kinase 15 (Homo sapiens) (UniProt Q96Q40); details: Compound concentration 1000.0 nM

Compound | residual activity [1] | residual activity [2] | residual activity [3] | residual activity [4] | residual activity [5] | residual activity [6] | residual activity [7] | residual activity [8] | residual activity [9] | residual activity [10] | Ki [11] | residual activity [12] | residual activity [13] | residual activity [14] | residual activity [15] | residual activity [16] | residual activity [17] | residual activity [18] | residual activity [19] | residual activity [20] | also measured
O=C(O)c1cc(-c2ccc(C3CCNCC3)cc2)c2ccc(-c3ccc(C(F)(F)F)cc3)cc2c1 [PPTN] | 82% | 84% | 80% | 100% | 100% | 100% | 62% | 100% | 99% | 83% | 1120 nM | 100% | 100% | 100% | 100% | 100% | 100% | 100% | 100% | 100% | residual activity [21]: 86%; residual activity [22]: 100%; residual activity [23]: 100%; residual activity [24]: 100%; residual activity [25]: 100%; residual activity [26]: 100%; residual activity [27]: 99%; residual activity [28]: 100%; inhibition [29]: 4.98%; residual activity [30]: 86%; residual activity [31]: 100%; residual activity [32]: 100%; residual activity [33]: 100%; residual activity [34]: 100%; inhibition [35]: 11.2%; residual activity [36]: 100%; residual activity [37]: 100%; residual activity [38]: 100%; residual activity [39]: 96%
Cc1c(C(=O)O)cc(-c2ccc(C3CCNCC3)cc2)c2ccc(-c3ccc(C(F)(F)F)cc3)cc12 [PPTN-NC] | 97% | 83% | 80% | 100% | 100% | 100% | 72% | 100% | 81% | 81% | 1700 nM | 100% | 92% | 100% | 100% | 96% | 100% | 100% | 100% | 100% | residual activity [21]: 80%; residual activity [22]: 100%; residual activity [23]: 100%; residual activity [24]: 100%; residual activity [25]: 100%; residual activity [26]: 97%; residual activity [27]: 85%; residual activity [28]: 100%; inhibition [29]: -0.81%; residual activity [30]: 100%; residual activity [31]: 100%; residual activity [32]: 100%; residual activity [33]: 100%; residual activity [34]: 100%; inhibition [35]: -4.53%; residual activity [36]: 100%; residual activity [37]: 100%; residual activity [38]: 100%; residual activity [39]: 100%
